Data from PMC5352758, “Methods for 20S Immunoproteasome and 20S Constitutive Proteasome Determination Based on SPRI Biosensors” (Cellular and Molecular Bioengineering, 2017).
Where a SMILES comes first, the peptide text is derived from it. [ ]: non-standard residue; d: D form. hPhe = N[C@@H](CCc1ccccc1)C(=O)O; Nle = CCCC[C@H](N)C(=O)O

What was measured:
[1] = biological target: 20Sc (constitutive proteasome; commercially available proteasome) (Homo sapiens, UniProt P28072+P28074+Q99436); experiment: SPRI measurement of ability of immobilized potential receptor to bind 20Sc; assay type: binding, mammalian; conditions: receptor at 1, 10, 100 μg mL−1, 20Sc 2.8 μg mL−1, SPRI signal increase of less than 20% = lack of ability to bind
Protocol: (§1) Chips were immersed in an ethanolic solution 1-octadecanothiol (ODM) ([…]) for 24 h at room temperature. Then the biosensors have been repeatedly washed in ethanol and water, and dried under a stream of argon. Chips prepared in this way can be stored and used for subsequent measurements. […] After that time, the process of immobilization of the inhibitor by hydrophobic interaction was completed. A biosensor prepared in this way should be used directly for analysis. A diagram of the chip appears in Fig. 1a.
(§2) The chip was immersed in a vessel with an ethanolic solution of cysteamine for 2 h at room temperature. After 2 h, the chip was rinsed with ethanol and water and dried under a stream of argon. A chip prepared in this manner can be stored and used for subsequent measurements. Each of the synthesised inhibitor solutions was activated with NHS (250 mM) and EDC (250 mM) in the ratio 1: 1 and carbonate buffer (pH 8.5) as a suitable reaction medium. Next, 3 μL of this solution was placed on each of nine active sites on the amine-modified surface. The closed vessel with the biosensor and under appropriate conditions of humidity was incubated at 37 °C for 1 h. Next, the biosensor was rinsed with water and dried under a stream of argon. A biosensor prepared in this way should be used directly for testing and analysis.
(§3) SPRI measurements for the protein biosensor array were performed as described elsewhere.[8],[11] Briefly, the measurements were performed at a fixed angle of incident light and the reflectivity was simultaneously measured cross an entire chip surface. The contrast values obtained for all pixels across a particular sample single spot were integrated. The signal was measured twice on the basis of registered images, after immobilization of the inhibitor and after immunoproteasome interaction. The SPRI signal, which is proportional to the coupled protein, was obtained by subtraction between the signals before and after interaction with protein for each spot separately.
(§4) A background correction was applied i.e. some of the sites on the biosensor covered with PBS buffer were used as a control. Non-specific binding was monitored by measuring the SPRI signal at a site on the chip without the receptor (ligand). Minimization of non-specific binding was achieved by preparing samples in PBS buffer (NaCl an KCl concentration ~200 mM) at pH 7.4 near the isoelectric point of the protein.
(§5) A crucial factor for the application of newly synthesised potential receptors is their selectivity. Selectivity for 20Si or 20Sc was checked using SPRI measurements. […] Measurements were performed as described above at three different concentrations of potential receptors (1, 10, 100 μg mL^−1) at a fixed concentration of 20Si (2.8 μg mL^−1) or 20Sc (2.8 μg mL^−1). An increase in the SPRI signal of less than 20% was considered to imply lack of ability to bind 20Si or 20Sc.

[2] = biological target: T1, chymotrypsin (Bos taurus, UniProt P00766); experiment: Inhibition of amidolytic activity of chymotrypsin (chromogenic substrate); assay type: biochemical; conditions: substrate Suc-Phe-pNA 8 mM, tris buffer pH 9.0, chymotrypsin 0.4 units mL−1, 3 min pre-incubation at 37 °C, 20 min incubation, absorbance 405 nm, average of triplicate
T1 construct: purchased Sigma (Schnelldorf, Germany)
Protocol: (§6) Determination of amidolytic activity was performed as described by Okada.[22] The synthetic amidolytic (chromogenic) substrates (Bzl-L-Arg-pNA.HCl for trypsin and Suc-Phe-pNA for chymotrypsin) are selected to give appropriate specificity for inhibition of the serine proteases. A chromophore (para-nitroaniline = pNA, yellow color) is cleaved from the C-terminus amide bond by the protease, and the absorbance can be detected.
(§7) A detailed description of the method is given below. The buffer and the enzyme solution contained: • […] buffer—0.5 mL (pH 7.5), enzyme: trypsin (0.4 units mL^−1), synthetic substrate: Bzl-L-Arg-pNA.HCl (0.2 mL, 8 mM); • tris buffer—0.6 mL (pH 9.0), enzyme: chymotrypsin (0.4 units mL^−1), synthetic substrate: Suc-Phe-pNA (0.2 mL, 8 mM).
(§8) The buffer and 0.1 mL of enzyme solution were added to 0.2 mL of the examined compound dissolved in 0.15 M NaCl (1–11) (as control 0.15 M NaCl). The mixture was incubated for 3 min at 37 °C, then the synthetic substrate was added. After 20 min of incubation, the reaction was stopped by adding 0.1 mL of 50% acetic acid, and the absorbance of the released p-nitroaniline was measured at 405 nm (Spekol 1300, Analytic Jena). Every value represents the average of triplicate determination. The IC50 value was taken as the concentration of the inhibitor which decreased the absorbance at 405 nm by 50% compared with the absorbance measured under the same conditions without the inhibitor.

[3] = biological target: T2, 20Si (immunoproteasome) (Homo sapiens, UniProt P28062+P28065+P40306); experiment: SPRI measurement of ability of immobilized potential receptor to bind 20Si; assay type: binding; conditions: for Selectivity of binding 20Si vs 20Sc, in words (text summary of Table 4): 20Si or 20Sc 2.8 μg mL−1; for Ability to bind 20Si: receptor at 1, 10, 100 μg mL−1, 20Si 2.8 μg mL−1, SPRI signal increase of less than 20% = lack of ability to bind
T2 construct: purchased www.vivabioscience.com (Basepoint Business Centre, United Kingdom)
Protocol: as §1, §2, §3, §4, §5

[4] = test system: trypsin; experiment: Inhibition of amidolytic activity of trypsin (chromogenic substrate); assay type: biochemical; conditions: substrate Bzl-L-Arg-pNA.HCl 8 mM, borane buffer pH 7.5, trypsin 0.4 units mL−1, 3 min pre-incubation at 37 °C, 20 min incubation, absorbance 405 nm, average of triplicate
Protocol: as §6, §7, §8

[5] = biological target: T3, 20Si (Homo sapiens, UniProt P28062+P28065+P40306); experiment: Specificity of SPRI biosensor: 20Si determination in the presence of an interferent; assay type: binding; conditions: added 20Si 2.80 μg mL−1; for Found 20Si: tripeptide as receptor via cysteamine linker, 20Sc 2.8 μg mL−1, ratio 20Si vs. 20Sc 1:1, 95% confidence limits, 12 measurements; for Recovery: tripeptide as receptor, 20Sc 2.8 μg mL−1, ratio 1:1
T3 construct: purchased www.vivabioscience.com (Basepoint Business Centre, United Kingdom)
Protocol: as §3, §4
The specificity of the developed biosensor, especially against 20Sc, is crucial factor for the device’s application. Specificity was investigated at different ratios of 20Si and 20Sc and various 20Si concentrations. Additionally, tolerance of human albumin was checked.
This investigation is crucial for the determination of 20Si in the presence of 20Sc. Series of model solutions containing both 20Si (2.8 μg mL^−1) and 20Sc (2.8 μg mL^−1) were determined using four developed biosensors specific for 20Si. The confidence limits of the results are a measure of measurement precision.

Row | Compound | Ability to bind 20Sc [1] | IC50 [2] [µM] | Selectivity of binding 20Si vs 20Sc, in words (text summary of Table 4) [3] | Ability to bind 20Si [3] | IC50 [4] [µM] | Found 20Si [5] [µg/mL] | Recovery [5] [%]
1 | CC(C)C[C@H](NC(=O)[C@H](Cc1ccccc1)NC(=O)[C@@H](N)CC(C)C)C(=O)O [compound 10, H-Leu-Phe-Leu-OH] (H-Leu-Phe-Leu-OH) | – (−, lack of bonding) | 1830 ± 150 | selective inhibition of 20Si | + (+, bound) | 12000 ± 960 | 2.89 ± 0.60 | 103
2 | CCCC[C@H](NC(=O)[C@H](CC(C)C)NC(=O)[C@@H](N)Cc1ccccc1)C(=O)O [compound 11, H-Phe-Leu-nLeu-OH] (H-Phe-Leu-[Nle]-OH) | – (−, lack of bonding) | 1920 ± 150 | selective inhibition of 20Si | + (+, bound) | 18000 ± 1440 | 2.99 ± 0.47 | 107
3 | N[C@@H](Cc1ccccc1)C(=O)N[C@@H](Cc1ccccc1)C(=O)N[C@@H](Cc1ccccc1)C(=O)O [compound 2, H-Phe-Phe–Phe-OH] (H-Phe-Phe-Phe-OH) | + (+, bound) | 185 ± 14 | able to bind both 20Si and 20Sc | + (+, bound) | – | – | –
4 | N[C@@H](Cc1ccccc1)C(=O)N[C@@H](CCc1ccccc1)C(=O)N[C@@H](Cc1ccccc1)C(=O)O [compound 7, H-Phe-hPhe-Phe-OH] (H-Phe-[hPhe]-Phe-OH) | + (+, bound) | 185 ± 14 | able to bind both 20Si and 20Sc | + (+, bound) | 44 ± 3 | – | –
5 | CC(C)C[C@H](NC(=O)[C@H](CC(C)C)NC(=O)[C@@H](N)Cc1ccccc1)C(=O)O [compound 5, H-Phe-Leu–Leu-OH] (H-Phe-Leu-Leu-OH) | – (−, lack of bonding) | 184 ± 14 | selective inhibition of 20Si | + (+, bound) | – | 2.97 ± 0.40 | 106
6 | CC(C)C[C@H](N)C(=O)N[C@@H](Cc1ccccc1)C(=O)N[C@@H](Cc1ccccc1)C(=O)O [compound 4, H-Leu-Phe–Phe-OH] (H-Leu-Phe-Phe-OH) | – (−, lack of bonding) | 184 ± 14 | does not capture any form of 20S | – (−, lack of bonding) | – | – | –
7 | CC(C)C[C@H](NC(=O)[C@@H](N)CC(C)C)C(=O)N[C@@H](Cc1ccccc1)C(=O)O [compound 8, H-Leu-Leu-Phe-OH] (H-Leu-Leu-Phe-OH) | – (−, lack of bonding) | 152 ± 12 | selective inhibition of 20Si | + (+, bound) | 79 ± 6 | 2.88 ± 0.44 | 103

More lines, now with the values ahead:

Row | Ability to bind 20Sc [1] | IC50 [2] [µM] | Selectivity of binding 20Si vs 20Sc, in words (text summary of Table 4) [3] | Ability to bind 20Si [3] | IC50 [4] [µM] | Found 20Si [5] [µg/mL] | Recovery [5] [%] | Compound
8 | + (+, bound) | 178 ± 14 | able to bind both 20Si and 20Sc | + (+, bound) | – | – | – | CC(C)C[C@H](NC(=O)[C@@H](N)Cc1ccccc1)C(=O)N[C@@H](Cc1ccccc1)C(=O)O [compound 1, H-Phe-Leu-Phe-OH] (H-Phe-Leu-Phe-OH)
9 | + (+, bound) | 187 ± 14 | able to bind both 20Si and 20Sc | + (+, bound) | – | – | – | C[C@H](NC(=O)[C@@H](N)Cc1ccccc1)C(=O)N[C@@H](Cc1ccccc1)C(=O)O [compound 3, H-Phe-Ala-Phe-OH] (H-Phe-Ala-Phe-OH)
10 | + (+, bound) | 174 ± 13 | selectivity to 20Sc | – (−, lack of bonding) | – | – | – | CC(C)C[C@H](NC(=O)[C@H](Cc1ccccc1)NC(=O)[C@@H](N)Cc1ccccc1)C(=O)O [compound 6, H-Phe-Phe-Leu-OH] (H-Phe-Phe-Leu-OH)
11 | + (+, bound) | 141 ± 11 | selectivity to 20Sc | – (−, lack of bonding) | – | – | – | N[C@@H](Cc1ccccc1)C(=O)N[C@@H](Cc1ccccc1)C(=O)O [compound 9, H-Phe-Phe-OH] (H-Phe-Phe-OH)
